Measured values from patent US10213451B2, “Methods and compounds for modulating the secretion or expression of adhesion proteins or angiopoietins of cells” (PACIFIC ARROW LIMITED, priority 2004, dated 2019).
Several values for one entry are separate records, joined by “and”; a condition that tells them apart may be missing. Equal values may be shown once. Read-outs that look alike come from different tables or passages of the source.

Assays:
Assay type in all cases: cell-based, human
ES2(ovarian) cells = assay: MTT assay ES2; settings: for viable cells by MTT assay: ES2, 10 ug/ml
[1] = test system: thrombospondin in ES2 cells; assay: Microarray gene expression, Table 15
Protocol: (§1) Y/D is the ratio (in folds) of gene expression in cells treated with compound Y as compared with those of the no drug control (D),
(§2) YM/D is the ratio of gene expression in cells treated with compound YM (ACH-Y, Y without sugar moiety) compared with those of the no drug control (D)
(§3) Cell culture and drug-treatment.: ES2 cells were seeded in a T-25 flask with 4.5 million cells per flask for 24 hours. Cell culture was replaced with fresh medium with xanifolia-Y (Y) or DMSO no drug control (D) for 24 hours. Cells were then harvested for RNA isolation. Three experiments were done.
(§4) RNA extraction, labeling, hybridization, and data analysis. RNA was extracted from tumor cells using the Qiagen RNeasy Kit. RNA quality and quantity was checked by the Agilent BioAnalyzer and the NanoDrop® ND-1000 spectrophotometer respectively before further manipulation. The first and second cDNA strands were synthesized from 20 ng of total RNA using the Affymetrix T7 oligo(dT) primer protocol and kit for the two-cycle amplification. To produce amplified biotin-labeled-cRNA, the cDNA was […] by in vitro transcription using the MegaScript kit from Ambion. 15.0 μg of the labeled cRNA was fragmented and re-checked for concentration using the NanoDrop® ND-1000 spectrophotometer. A hybridization cocktail containing Affymetrix spike-in controls and fragmented labeled cRNA was loaded onto the Human U133 Plus 2.0 GeneChip® oligonucleotide array. The Affymetrix array (Affymetrix, Inc. Santa Clara, Calif.) is comprised of over 1,300,000 unique oligonucleotide features that represent greater than 38,500 well-substantiated human genes. The array was hybridized for 16 hours at 45° C. with rotation at 60 rpm then washed and stained with a strepavidin, R-phycoerythrin conjugate stain on the Affymetrix Fluidicis Station 450. Signal amplification was done using biotinylated antistreptavidin. The arrays were scanned using the GeneChip® 3000 confocal laser scanner with autoloader. The images were analyzed and quality control metrics recorded using Affymetrix GCOS software version 1.4. Lastly, the expression value for each gene was calculated using dChip PM-only model based or Plier algorithm.
(§5) Pairwise comparisons were made as follows: Treated vs. Control (Y vs. D), Modified Drug vs Control (YM/ACY-H vs. D) and Treated vs. Modified Drug (Y vs. YM/ACH-Y) Cel files analyzed using the Bioconductor package of R Statistical programming. Limma analysis generated a reasonable number of changing genes between the samples.
(§6) The raw data in the .CEL files were normalized by the GCRMA method (robust multi-array analysis). It is implemented in Bioconductor (http://www.bioconductor.org/). The raw signal intensity data were normalized, background corrected and summarized based on certain statistical models, and an expression value, in log 2-scale, is obtained per chip per probe set. Then the null hypothesis was tested that there's no significant changes in gene expression between the treatment pairs. This was done by LIMMA and is also implemented in Bioconductor. It uses empirical Bayes method to estimate the variance in gene expression. One comparison was made, namely, High Grade vs. Low Grade. The raw p-values were adjusted by the Benjamnin-Hochberg method for false discovery rate (FDR) control. All data sets contained a significant number of genes with a p-value less than 0.05, which is that the probability that a gene is NOT differential expressed (false positive) is 1:20.

[2] = test system: CAM expression in ES2 cells; assay: Microarray gene expression, Table 4; settings: for inhibiting ratio to the control, genes related to the adhesion molecule: span over different probes of Table 4
Protocol: as §1, §2, §3, §4, §5, §6

[3] = test system: potassium channel, subfamily U, protein expression in ES2 cells; assay: Microarray gene expression, Table 18; settings: probe 237273_at
Protocol: as §1, §2, §3
RNA extraction, labeling, hybridization, and data analysis. RNA was extracted from tumor cells using the Qiagen RNeasy Kit. RNA quality and quantity was checked by the Agilent BioAnalyzer and the NanoDrop® ND-1000 spectrophotometer respectively before further manipulation. […] The images were analyzed and quality control metrics recorded using Affymetrix GCOS software version 1.4. Lastly, the expression value for each gene was calculated using dChip PM-only model based or Plier algorithm.
Pairwise comparisons were made as follows: Treated vs. Control (Y vs. D), Modified Drug vs Control (YM/ACY-H vs. D) and Treated vs. Modified Drug (Y vs. YM/ACH-Y) Cel files analyzed using the Bioconductor package of R Statistical programming. […]

[4] = test system: heparin sulfate expression in ES2 cells; assay: Microarray gene expression, Table 10; settings: for HSPG2 heparan sulfate proteoglycan 2 (perlecan), gene expression ratio to no drug control (D): probe 201655_s_at; for HS2ST1 heparan sulfate 2-O-sulfotransferase 1, gene expression ratio to no drug control (D): probe 203284_s_at; for HPSE Heparanase, gene expression ratio to no drug control (D): probe 219403_s_at
Protocol: as §1, §2, §3, §4, §5, §6

[5] = test system: Glypican expression in ES2 cells; assay: Microarray gene expression, Table 13
Protocol: as §1, §2, §3, §4, §5
The raw data in the .CEL files were normalized by the GCRMA method (robust multi-array analysis). It is implemented in Bioconductor (http://www.bioconductor.org/). […]

[6] = test system: laminin expression in ES2 cells; assay: Microarray gene expression, Table 3; settings: for LAMC1, gene expression ratio to no drug control (D): probe 200770_s_at; for LAMB1 laminin, beta 1, gene expression ratio to no drug control (D): probe 201505_at; for LAMA4 laminin, alpha 4, gene expression ratio to no drug control (D): probe 202202_s_at; for LAMB1, gene expression ratio to no drug control (D): probe 211651_s_at; for LAMB2, gene expression ratio to no drug control (D): probe 216264_s_at
Protocol: as §1, §2, §3, §4, §5, §6

[7] = Homo sapiens, ES-2, ES2 cells, read-out: IC50

| Structure (SMILES) | IC50 (ES2(ovarian) cells; [7]) [µg/mL] | THBS1 thrombospondin 1, gene expression ratio to no drug control (D) ([1]; probe 201108_s_at) [folds] | THBS1 thrombospondin 1, gene expression ratio to no drug control (D) ([1]; probe 201109_s_at) [folds] | THBS1 thrombospondin 1, gene expression ratio to no drug control (D) ([1]; probe 201110_s_at) [folds] | ALCAM activated leukocyte cell adhesion molecule, gene expression ratio to no drug control (D) ([2]; probe 201951_at) [folds] | ALCAM activated leukocyte cell adhesion molecule, gene expression ratio to no drug control (D) ([2]; probe 201952_at) [folds] | SCAMP1 secretory carrier membrane protein 1, gene expression ratio to no drug control (D) ([2]; probe 206667_s_at) [folds] | SCAMP1 secretory carrier membrane protein 1, gene expression ratio to no drug control (D) ([2]; probe 212416_at) [folds] | SCAMP1 secretory carrier membrane protein 1, gene expression ratio to no drug control (D) ([2]; probe 212417_at) [folds] | SCAMP1 secretory carrier membrane protein 1, gene expression ratio to no drug control (D) ([2]; probe 212425_at) [folds] | TICAM2 toll-like receptor adaptor molecule 2, gene expression ratio to no drug control (D) ([2]; probe 228234_at) [folds] | TICAM2 toll-like receptor adaptor molecule 2, gene expression ratio to no drug control (D) ([2]; probe 239431_at) [folds] | ALCAM activated leukocyte cell adhesion molecule, gene expression ratio to no drug control (D) ([2]; probe 240655_at) [folds] | inhibiting ratio to the control, genes related to the adhesion molecule [2] [folds] | KCNU1 potassium channel, subfamily U, member 1, gene expression ratio to no drug control (D) [3] [folds] | HSPG2 heparan sulfate proteoglycan 2 (perlecan), gene expression ratio to no drug control (D) [4] [folds] | HS2ST1 heparan sulfate 2-O-sulfotransferase 1, gene expression ratio to no drug control (D) [4] [folds] | HPSE Heparanase, gene expression ratio to no drug control (D) [4] [folds] | GPC6 Glypican 6, gene expression ratio to no drug control (D) ([5]; probe 227059_at) [folds] | GPC6 Glypican 6, gene expression ratio to no drug control (D) ([5]; probe 243865_x_at) [folds] | further results |
| --- | --- | --- | --- | --- | --- | --- | --- | --- | --- | --- | --- | --- | --- | --- | --- | --- | --- | --- | --- | --- | --- |
| C/C=C(/C)C(=O)O[C@H]1[C@H](OC(=O)/C(C)=C\C)[C@@]2(CO)C(CC1(C)C)C1=CCC3[C@@]4(C)CC[C@H](O)C(C)(C)C4CC[C@@]3(C)[C@]1(C)[C@@H](O)[C@H]2O (stereo partly shown) [ACH-Y] | 20 | −2.2 | −6.2 | −4.5 | −1.7 | −1.4 | −1.5 | −1.1 | −1.4 | −1.5 | −1.3 | −1.3 | −1.3 | −1.1 to −1.7 | −1.9 | −1.3 | −1.7 | −1.3 | −1.8 | −2.0 | LAMC1, gene expression ratio to no drug control (D) ([6]; listed as YM): −1.1 folds; LAMC1, gene expression ratio to no drug control (D) ([6]; listed as YM/ACH-Y): 1.1 folds; LAMB1 laminin, beta 1, gene expression ratio to no drug control (D) [6]: −2.0 folds; LAMA4 laminin, alpha 4, gene expression ratio to no drug control (D) [6]: −2.0 folds; LAMB1, gene expression ratio to no drug control (D) [6]: −1.7 folds; LAMB2, gene expression ratio to no drug control (D) [6]: −2.0 folds |
| C/C=C(/C)C(=O)O[C@H]1[C@H](OC(=O)/C(C)=C\C)[C@@]2(CO)C(CC1(C)C)C1=CCC3[C@@]4(C)CC[C@H](O[C@@H]5OC(C(=O)O)[C@@H](O)C(O[C@@H]6O[C@@H](CO)C(O)C6O)C5O[C@@H]5OC(CO)[C@H](O)C(O)C5O)C(C)(C)C4CC[C@@]3(C)[C@]1(C)[C@@H](O)[C@H]2O (stereo partly drawn) [Xanifolia-Y, 3-O-[β-D-galactopyranosyl (1→2)]-α-L-arabinofuranosy (1→3)-β-D-glucuronopyranosyl-21,22-O-diangeloyl-3β, 15α, 16α, 21β, 22α, 28-hexahydroxyolean-12-ene] | 5 | −1.7 | −2.0 | −1.8 | −1.9 | −1.9 | −1.3 | −1.3 | −1.4 | −1.7 | −1.3 | −1.3 | −1.6 | −1.3 to −1.9 | −4.0 | −2.4 | −1.3 | −1.4 | −2.2 | −2.7 | growth of cells compared to the DMSO control (MTT) (ES2(ovarian) cells; ES2, 10 ug/ml (F13)): 89%; viable cells by MTT assay (ES2(ovarian) cells; 7 hours): 93%; viable cells by MTT assay (ES2(ovarian) cells; 18 hours): Over 95%; viable cells by MTT assay (ES2(ovarian) cells; 24 hours): 85% and 87%; IC50 (ES2(ovarian) cells; ES2 cells): 4.4 µg/mL; IC50 (ES2(ovarian) cells; Homo sapiens, ES2, Clear cell, read-out: IC50): 4.4 µM; IC50 (ES2(ovarian) cells; Homo sapiens, ES-2, ES2 cells, combined with Paclitaxel, read-out: IC50 value for Xanifolia-Y when both drugs were used): 2.5 µg/mL; LAMC1, gene expression ratio to no drug control (D) [6]: −1.9 folds; LAMB1 laminin, beta 1, gene expression ratio to no drug control (D) [6]: −1.6 folds; LAMA4 laminin, alpha 4, gene expression ratio to no drug control (D) [6]: −2.2 folds; LAMB1, gene expression ratio to no drug control (D) [6]: −1.6 folds; LAMB2, gene expression ratio to no drug control (D) [6]: −2.0 folds |
